These results are taken from patent US20010001104A1, “Thienopyridine compounds, their production and use” (priority 1998, published 2001).

Like-named read-outs stand apart in the source and are kept apart here.

One data set has as its system blood LH. Briefly: Suppression of blood LH in castrated monkeys. As to conditions: castrated male cynomolgus monkeys; 30 mg/kg oral; values only in FIG. 1. The format is in vivo, cynomolgus monkeys (Macaca fascicularis). As for the experimental part: The compound produced in Example 1-2 was orally administered to castrated male cynomolgus monkeys (Macaca fascicularis), and blood LH was quantified. The male cynomolgus monkeys, used at 3 years 8 months to 7 years 7 months of age at time of experimentation, had been castrated more than half a year prior to the examination. Test animals [n =2; compound (1) and compound (2)] were given 30 mg/kg (3 ml/kg) of the compound suspended in 0.5% methyl cellulose at a final concentration of 1% by oral administration, and control animals [n=3; control (1), control (2) and control (3)] were given 3 ml/kg of the 0.5% methyl cellulose dispersant alone by oral administration. […]
Plasma LH concentrations were determined by a bioassay using mouse testicular cells. […] The testosterone concentration in the culture supernatant was determined by a radioimmunoassay (CIS Diagnostics Company), and the LH concentration in the test monkey plasma was calculated from the standard curve for the standard equine LH.
For the control (1), the control (2), and the control (3), changes over time in the LH concentrations in each animal are expressed as percent ratios to the respective reference values, which comprise the LH concentrations immediately before administration in each control animal (cynomolgus monkey). […]

The next data set concerns the target T1, human GnRH receptor (Homo sapiens, UniProt P30968).
T1 construct: expressed in transfected cells; host or cells: CHO (Chinese hamster ovarian) cells
T1 sequence (P30968 1-328): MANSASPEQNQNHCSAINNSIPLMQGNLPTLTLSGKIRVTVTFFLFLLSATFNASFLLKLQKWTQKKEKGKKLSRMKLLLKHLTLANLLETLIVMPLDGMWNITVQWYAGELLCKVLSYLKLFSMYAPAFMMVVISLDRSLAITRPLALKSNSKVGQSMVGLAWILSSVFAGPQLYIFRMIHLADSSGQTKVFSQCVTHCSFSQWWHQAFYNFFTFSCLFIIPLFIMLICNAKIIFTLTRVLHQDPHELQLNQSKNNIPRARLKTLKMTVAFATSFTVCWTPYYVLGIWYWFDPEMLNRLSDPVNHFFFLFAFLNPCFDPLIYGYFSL
Nature of the data set: 125I-leuprorelin binding inhibition, CHO cell membrane fraction containing human GnRH receptor. On the procedure: After stirring, 10 μl of 0.001% H2O2 was added, and a reaction was carried out at room temperature for 20 minutes. By adding 700 μl of a 0.05% TFA (trifluoroacetic acid) solution, the reaction was stopped, followed by purification by reversed-phase HPLC. […] To the cell pellet, 10 ml of a cell homogenate buffer (10 mM NaHCO3, 5 mM EDTA, pH 7.5) was added, followed by homogenization using the Polytron homogenizer. After centrifugation at 400×g for 15 minutes, the supernatant was transferred to an ultracentrifugation tube and centrifuged at 100,000×g for 1 hour to yield a membrane fraction precipitate. This precipitate was suspended in 2 ml of an assay buffer and centrifuged at 100,000×g for 1 hour. The membrane fraction recovered as a precipitate was again suspended in 20 ml of the assay buffer, dispensed, and stored at −80° C. before use upon thawing. […] Where the rat or bovine pituitary anterior lobe membrane fraction was used, the reaction was conducted at 4° C. for 90 minutes. Where the membrane fraction of the CHO with human GnRH receptors expressed was used, the reaction was carried out at 25° C. for 60 minutes. After each reaction, the reaction mixture was aspirated and filtered through a polyethyleneimine-treated Whatman glass filter (GF-F). […] The expression (TB-SB)/(TB-NSB)×100 (where SB= radioactivity with the compound added, TB=maximum bound radioactivity, NSB=nonspecifically bound radioactivity) was calculated to find the binding inhibition rate (%) of each test compound.

In the next data set the target is T2, GnRH receptors (Rattus norvegicus, UniProt P30969).
T2 construct: Anterior lobes of the pituitary glands were isolated from forty Wistar rats; from tissue; host or cells: anterior lobe of the pituitary gland, male Wistar rats
T2 sequence (P30969 1-327): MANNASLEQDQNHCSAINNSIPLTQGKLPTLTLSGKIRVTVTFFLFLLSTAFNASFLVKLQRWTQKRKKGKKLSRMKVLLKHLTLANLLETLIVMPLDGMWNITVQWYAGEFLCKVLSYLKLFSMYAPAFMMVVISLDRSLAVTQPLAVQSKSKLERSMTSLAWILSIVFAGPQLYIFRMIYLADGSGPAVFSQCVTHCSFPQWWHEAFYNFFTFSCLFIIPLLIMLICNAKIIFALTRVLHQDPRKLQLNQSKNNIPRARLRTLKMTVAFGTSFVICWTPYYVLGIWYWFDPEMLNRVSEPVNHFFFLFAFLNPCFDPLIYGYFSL
Nature of the data set: 125I-leuprorelin binding inhibition, rat pituitary anterior lobe membrane fraction. As to conditions: for inhibition at 1 µM: read-out: binding inhibition rate (%) Rat (1 μM); for IC50: Hill plot. On the procedure:
After stirring, 10 μl of 0.001% H2O2 was added, and a reaction was carried out at room temperature for 20 minutes. By adding 700 μl of a 0.05% TFA (trifluoroacetic acid) solution, the reaction was stopped, followed by purification by reversed-phase HPLC. […] Anterior lobes of the pituitary glands were isolated from forty Wistar rats (8 weeks old, male), and washed with ice-cooled homogenate buffer [25 mM Tris (tris(hydroxymethyl)aminomethane)-HCl, 0.3M sucrose, 1 mM EGTA (glycol-etherdiamine-N,N,N′,N′-tetraacetic acid), 0.25 mM PMSF (phenylmethylsulfonyl fluoride), 10 U/ml aprotinin, […] pepstatin, […] leupeptin, […], 0.03% sodium azide, pH 7.5]. The pituitary tissue was floated in 2 ml of the homogenate buffer and homogenized using a Polytron homogenizer. The homogenate was centrifuged at 700×g for 15 minutes. The supernatant was taken in an ultracentrifuge tube and centrifuged at 100, 000×g for 1 hour to provide a membrane fraction pellet. This pellet was suspended in 2 ml of assay buffer [25 mM Tris-HCl, 1 mM EDTA (ethylenediaminetetraacetic acid), 0.1% BSA (bovine serum albumin), 0.25 mM PMSF, 1 mg/ml pepstatin, 20 mg/ml leupeptin, […], 0.03% sodium azide, pH 7.5) and the suspension was centrifuged at 100,000×g for 1 hour. The membrane fraction recovered as a pellet was resuspended in 10 ml of assay buffer, divided into portions, preserved at −80° C. and thawed when needed. […] Where the rat or bovine pituitary anterior lobe membrane fraction was used, the reaction was conducted at 4° C. for 90 minutes. Where the membrane fraction of the CHO with human GnRH receptors expressed was used, the reaction was carried out at 25° C. for 60 minutes. After each reaction, the reaction mixture was aspirated and filtered through a polyethyleneimine-treated Whatman glass filter (GF-F). […] The expression (TB-SB)/(TB-NSB)×100 (where SB= radioactivity with the compound added, TB=maximum bound radioactivity, NSB=nonspecifically bound radioactivity) was calculated to find the binding inhibition rate (%) of each test compound.

Setting [1] is: rat pituitary anterior lobe membrane fraction, 125I-leuprorelin.

`CC(C)C(=O)c1cn(Cc2c(F)cccc2F)c2sc(-c3ccc(NC(=O)[C@H](C)CO)cc3)c(CN(C)Cc3ccccc3)c2c1=O.Cl` had a melting point of 214 to 216 °C. On the same count and under the same terms, for `CC(C)C(=O)c1cn(Cc2c(F)cccc2F)c2sc(-c3ccc(NC(=O)C(C)(C)O)cc3)c(CN(C)Cc3ccccc3)c2c1=O.Cl` the value was 213 to 215 °C; for `CC(C)C(=O)c1cn(Cc2c(F)cccc2F)c2sc(-c3ccc(NC(=O)C4(O)CC4)cc3)c(CN(C)Cc3ccccc3)c2c1=O.Cl`, 220 to 222 °C; for `CC(C)C(=O)c1cn(Cc2c(F)cccc2F)c2sc(-c3ccc(NC(=O)CC(C)(C)O)cc3)c(CN(C)Cc3ccccc3)c2c1=O.Cl`, 216 to 218 °C. Same read-out and setting: for `CONC(=O)Nc1ccc(-c2sc3c(c2CN(C)Cc2ccccc2)c(=O)c(C(=O)C(C)C)cn3Cc2c(F)cccc2F)cc1.Cl` the value was 225 to 230 °C; for `CC(C)C(=O)c1cn(Cc2c(F)cccc2F)c2sc(-c3ccc(NC(=O)CO)cc3)c(CN(C)Cc3ccccc3)c2c1=O.Cl`, 197 to 199 °C. For `CC(C)C(=O)c1cn(Cc2c(F)cccc2F)c2sc(-c3ccc(NC(=O)C4CC4)cc3)c(CN(C)Cc3ccccc3)c2c1=O.Cl` [Example 1-2, 3-(N-benzyl-N-methylaminomethyl)-4,7-dihydro-5-isobutyryl-7-(2,6-difluorobenzyl)-2-(4-cyclopropanecarbonylaminophenyl)-4-oxothieno[2,3-b]pyridine Hydrochloride], the melting point lay in the range of 254 to 256 °C. Further, the “plasma LH concentrations” value in the data set on blood LH is listed as “suppression of plasma LH concentrations”. The inhibition at 20 µM at human GnRH receptor (20 μM compound, CHO membrane fraction with human GnRH receptors, 125I-leuprorelin, 25° C., 60 minutes, read-out: binding inhibition rate (%) Human (20 μM)) came to 102%. Besides, on human GnRH receptor (CHO membrane fraction with human GnRH receptors, 125I-leuprorelin, Hill plot, read-out: IC50 value (μM) Human), the IC50 came to 0.0001 µM. Further, the inhibition at 1 µM at GnRH receptors (1 μM compound, rat pituitary anterior lobe membrane fraction, 125I-leuprorelin, 4° C., 90 minutes) came to 96%. The same compound showed an IC50 at GnRH receptors (setting [1]) of 0.06 µM. `CC(C)C(=O)c1cn(Cc2c(F)cccc2F)c2sc(-c3ccc(NC(=O)C(C)CO)cc3)c(CN(C)Cc3ccccc3)c2c1=O` (stereo not shown) [Example 3, 3-(N-benzyl-N-methylaminomethyl)-4,7-dihydro-5-isobutyryl-7-(2,6-difluorobenzyl)-2-[4-(3-hydroxy-2-methylpropionylamino)phenyl]-4-oxothieno[2,3-b]pyridine] displayed a melting point of 161 to 162 °C. This compound also yielded an IC50 at human GnRH receptor of 0.0002 µM. Moreover, the IC50 on GnRH receptors (setting [1]) was found to be 0.6 µM. Further, the inhibition at 1 µM on GnRH receptors was 62%. Regarding `CC(C)C(=O)Nc1ccc(-c2sc3c(c2CN(C)Cc2ccccc2)c(=O)c(C(=O)C(C)(C)O)cn3Cc2c(F)cccc2F)cc1` [Example 7, 3-(N-benzyl-N-methylaminomethyl)-4,7-dihydro-7-(2,6-difluorobenzyl)-2-(4-isobutyrylaminophenyl)-5-(2-hydroxy-2-methylpropionyl)-4-oxothieno[2,3-b]pyridine], the melting point fell in the range of 170 to 172 °C. In turn, `CC(C)C(=O)c1cn(Cc2c(F)cccc2F)c2sc(-c3ccc(NC(=O)[C@H](C)CO)cc3)c(CN(C)Cc3ccccc3)c2c1=O` [Example 10-1, (R)-4,7-dihydro-2-[4-(3-hydroxy-2-methylpropionylamino)phenyl]-7-(2,6-difluorobenzyl)-3-(N-benzyl-N-methylaminomethyl)-5-isobutyryl-4-oxothieno[2,3-b]pyridine] displayed a melting point of 161 to 162 °C. Same read-out and setting: for `CC(C)C(=O)c1cn(Cc2c(F)cccc2F)c2sc(-c3ccc(NC(=O)C(C)(C)O)cc3)c(CN(C)Cc3ccccc3)c2c1=O` [Example 11-1, 4,7-dihydro-2-[4-(2-hydroxy-2-methylpropionylamino)phenyl]-7-(2,6-difluorobenzyl)-3-(N-benzyl-N-methylaminomethyl)-5-isobutyryl-4-oxothieno[2,3-b]pyridine] the value was 178 to 180 °C; for `CN(Cc1ccccc1)Cc1c(-c2ccc(NC(=O)C3(O)CC3)cc2)sc2c1c(=O)c(C(=O)c1ccccc1)cn2Cc1c(F)cccc1F` [Example 21], 186 to 188 °C; for `CN(Cc1ccccc1)Cc1c(-c2ccc(NC(=O)C(C)(C)O)cc2)sc2c1c(=O)c(C(=O)c1ccccc1)cn2Cc1c(F)cccc1F` [Example 22, 3-(N-benzyl-N-methylaminomethyl)-5-benzoyl-7-(2,6-difluorobenzyl)-4,7-dihydro-2-[4-(2-hydroxy-2-methylpropionylamino)phenyl]-4-oxothieno[2,3-b]pyridine], 222 to 223 °C. `C[C@H](CO)C(=O)Nc1ccc(-c2sc3c(c2CN(C)Cc2ccccc2)c(=O)c(C(=O)c2ccccc2)cn3Cc2c(F)cccc2F)cc1` [Example 23] displayed a melting point of 145 to 146 °C.
